Test results taken from article PMC6201685 (Biochemistry, 2016).

Tests used:
Rv2671 [1] = biological target: T1, Rv2671 (Mycobacterium tuberculosis, UniProt P71968); assay type: biochemical
Rv2671 [2] = biological target: T1, Rv2671; assay: X-ray cocrystal structure; assay type: biochemical
[3] = tested on: Nc1nc2c(c(=O)[nH]1)N=C(CNc1ccc(C(=O)N[C@@H](CCC(=O)O)C(=O)O)cc1)CN2; assay: purified protein
[4] = tested on: Nc1nc2c(c(=O)[nH]1)N=C(CNc1ccc(C(=O)O)cc1)CN2; assay: purified protein

**Q.** Which “cosubstrate in DHF reduction assay with purified enzyme (340 nm, HPLC)” value (Rv2671 [1]) does the source give for `NC(=O)C1=CN([C@@H]2O[C@H](COP(=O)(O)OP(=O)(O)OC[C@H]3O[C@@H](n4cnc5c(N)ncnc54)[C@H](OP(=O)(O)O)[C@@H]3O)[C@@H](O)[C@H]2O)C=CC1` [NADPH] here?
**A.** Its value is “Tetrahydrofolate, the product of the reaction, was observed by HPLC spectrometry after the addition of DHF and NADPH to Rv2671”.

**Q.** For `COc1cc(NCc2ccc3nc(N)nc(N)c3c2C)cc(OC)c1OC` [TMQ, trimetrexate], which IC50 (Rv2671 [2]) is on record?
**A.** Its IC50 is 280 ± 20 nM.

**Q.** “Rv2671 (Mycobacterium tuberculosis H37Rv)” was tested. Which Km [3] did it give?
**A.** Its Km is 136 ± 32 µM.

**Q.** What about the Km [4] of the same compound?
**A.** The Km was 180.2 ± 25.5 µM.
